Read-outs that look alike come from different tables or passages of the source.
Key:
CYP1A2 = CYP1A2 enzyme induction assay in cryopreserved primary human hepatocytes (PHH); format: in vitro ADME; conditions: for Prediction in vivo inducer: Cmax/F2 >0.5 criterion; for Assigned classification CYP1A2: PHH;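 for Assigned classification CYP1A2: code 1 means positive inducer and 0 means non-inducer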
CYP2B6 [1] = assay: CYP2B6 enzyme induction assay in cryopreserved primary human hepatocytes (PHH); format: in vitro ADME; conditions: for Assigned classification CYP2B6: PHH;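 for Assigned classification CYP2B6: code 1 means positive inducer and 0 means non-inducer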
[2] = Solubility by visual inspection (DMSO stock solution and assay medium); format: physicochemical; conditions: assay medium
Procedure: The SOPs relied on visual inspection for solubility observation. […] The absence of precipitation in the medium was checked pre- and post-incubation (24 hours) by centrifugation of the sample and observation of any precipitation (pellet residue).

[3] = Solubility by nephelometry (EURL ECVAM); format: physicochemical
Description: In addition to the visual inspection performed by the validation laboratories as described in the SOP, EURL ECVAM introduced nephelometry for systematic solubility determination of the 13 validation set chemicals. Nephelometry uses a laser beam and the principle of Tyndall effect light scatter to detect turbidity due to insolubility. The nephelometer method used formazin as reference item (1, 5, 10 and 20 nephelometric turbidity units (NTU)) to calculate the relative turbidity (RTU) of the validation set of chemicals. To the naked eye, 20 NTU is perceptible, while the nephelometer was sensitive to 5 NTU, with 1 NTU equivalent to background (solvent/medium blank).

[4] = cited from earlier work
CYP = CYP isoforms induced; ref Abadie et al. (2009), Richert et al. (2010), Preissner et al. (2010), Hoffmann et al. (2014); cited from earlier work
CYP2B6 [5] = conditions: cited from earlier work
CYP3A4 [6] = conditions: cited from earlier work
CYP3A4 [7] = assay: CYP3A4 enzyme induction assay in cryopreserved primary human hepatocytes (PHH); conditions: for Assigned classification CYP3A4: PHH
[8] = human in vivo, CYP named without remark = induced, ref references in the cell, Washington University database, Hoffmann et al. (2014), Pelkonen et al. (2008), Hukkanen et al. (2012)

Prediction in vivo inducer (CYP1A2; CYP1A2, PHH): No | Prediction in vivo inducer (CYP1A2; CYP1A2, PHH, listed as efavirenz): non-inducers | Induction in vitro (CYP1A2; CYP1A2, PHH, positive in one donor in each of the three laboratories): No | Assigned classification CYP1A2 (CYP1A2; Lab 1, batch 0 6 A): 0 | Assigned classification CYP1A2 (CYP1A2; Lab 1, batch 4 0 8): 0 | Assigned classification CYP1A2 (CYP1A2; Lab 1, batch 8 0 8): 0 | Assigned classification CYP1A2 (CYP1A2; Lab 2, batch 0 6 A): 0 | Assigned classification CYP1A2 (CYP1A2; Lab 2, batch 4 0 8): 0 | Assigned classification CYP1A2 (CYP1A2; Lab 2, batch 8 0 8): 0 | Assigned classification CYP1A2 (CYP1A2; Lab 3, batch 0 6 A): 0 | Assigned classification CYP1A2 (CYP1A2; Lab 3, batch 4 0 8): 0 | Assigned classification CYP1A2 (CYP1A2; Lab 3, batch 8 0 8): 0 | F2 (CYP2B6 [1]; CYP2B6, PHH): 4.69 µM | Induction in vitro (CYP2B6 [1]; CYP2B6, PHH): Yes | Prediction in vivo inducer (CYP2B6 [1]; CYP2B6, PHH): Yes | Prediction in vivo inducer (CYP2B6 [1]; CYP2B6, PHH, Cmax/F2 >0.5 criterion): positive | Assigned classification CYP2B6 (CYP2B6 [1]; Lab 1, batch 0 6 A): 1 | Assigned classification CYP2B6 (CYP2B6 [1]; Lab 1, batch 4 0 8): 1 | Assigned classification CYP2B6 (CYP2B6 [1]; Lab 1, batch 8 0 8): 1 | Assigned classification CYP2B6 (CYP2B6 [1]; Lab 2, batch 0 6 A): 1 | Assigned classification CYP2B6 (CYP2B6 [1]; Lab 2, batch 4 0 8): 1 | Assigned classification CYP2B6 (CYP2B6 [1]; Lab 2, batch 8 0 8): 0 | Assigned classification CYP2B6 (CYP2B6 [1]; Lab 3, batch 0 6 A): 1 | Assigned classification CYP2B6 (CYP2B6 [1]; Lab 3, batch 4 0 8): 0 | Assigned classification CYP2B6 (CYP2B6 [1]; Lab 3, batch 8 0 8): 0 | HepaRG medium stability ([2]; Lab 1, visual observation): 20 µg/mL | HepaRG medium stability ([2]; Lab 2, visual observation): 40 µg/mL | HepaRG medium stability ([2]; Lab 3, visual observation): 40 µg/mL | PHH medium stability ([2]; Lab 4, visual observation): 40 µg/mL | PHH medium stability ([2]; Lab 5, visual observation): 40 µg/mL | PHH medium stability ([2]; Lab 6, visual observation): 40 µg/mL | nephelometry finding in assay medium ([3]; 40 μg/ml, the two media): insoluble suspensions | HepaRG medium stability ([3]; ECVAM nephelometry, HepaRG medium, ^2 = solubility limit): 20 µg/mL | PHH medium stability ([3]; ECVAM nephelometry, ^2 = solubility limit): 40^2 μg/mL | PHH medium stability ([3]; ECVAM nephelometry, ^2 = solubility limit, listed as efavirenz): 40 µg/mL | F2 (CYP3A4 [7]; CYP3A4, PHH): 14.1 µM | Induction in vitro (CYP3A4 [7]; CYP3A4, PHH): Yes | Prediction in vivo inducer (CYP3A4 [7]; CYP3A4, PHH): Yes | Assigned classification CYP3A4 (CYP3A4 [7]; Lab 1, batch 0 6 A): 1 | Assigned classification CYP3A4 (CYP3A4 [7]; Lab 1, batch 4 0 8): 1 | Assigned classification CYP3A4 (CYP3A4 [7]; Lab 1, batch 8 0 8): 1 | Assigned classification CYP3A4 (CYP3A4 [7]; Lab 2, batch 0 6 A): 1 | Assigned classification CYP3A4 (CYP3A4 [7]; Lab 2, batch 4 0 8): 1 | Assigned classification CYP3A4 (CYP3A4 [7]; Lab 2, batch 8 0 8): 1 | Assigned classification CYP3A4 (CYP3A4 [7]; Lab 3, batch 0 6 A): 1 | Assigned classification CYP3A4 (CYP3A4 [7]; Lab 3, batch 4 0 8): 1 | Assigned classification CYP3A4 (CYP3A4 [7]; Lab 3, batch 8 0 8): 1
Structure (SMILES): O=C1Nc2ccc(Cl)cc2[C@@](C#CC2CC2)(C(F)(F)F)O1 [Efavirenz]
Cmax ([4]; human in vivo plasma concentration, normal dose): 9.1 to 12.6 µM | Cmax ([4]; human in vivo, normal dose (Table 10)): 9.1 to 12.6 µM | CYP induction in vitro (human hepatocytes) (CYP): CYP2B6, CYP3A4 | Induction in vivo (CYP2B6 [5]; CYP2B6, human in vivo reference classification): Yes | CYP induction in vivo literature reference: CYP2B6 (CYP2B6 [5]; [8]): CYP2B6 | Induction in vivo (CYP3A4 [6]; CYP3A4, human in vivo reference classification (Table 12)): Yes | CYP induction in vivo literature reference: CYP3A4 (CYP3A4 [6]; [8]): CYP3A4
